Legend:
[1] = Pharmacokinetics in rats (plasma); type: in vivo, rat (female Sprague-Dawley)
Description: (§1) In brief, free and liposome-encapsulated drugs were injected to female Sprague-Dawley rats as a single intravenous bolus dose via a catheter inserted through the jugular vein of animals. At specific time points, animals were sacrificed and blood was collected in heparinized tubes and separated by centrifugation. At the same time, selected tissues were removed, washed, weighed and homogenized. Tissues and plasma were then treated according to a commercial tissue solubilizer procedure. The determination of drug and lipid levels in all samples were monitored with radioactive tracers.
Parameters were calculated from the plasma concentrationtime curves using
a noncompartmental model.
Values are expressed as means ± SD obtained from 6 animals per group

HIV-1Ada-M = test: Antiviral efficacy in primary monocyte-derived macrophages infected with HIV-1Ada-M (p24); type: cell-based
Description: Briefly, cells were infected with different strains of HIV with a multiplicity of infection of 1 (virus/target cell) and were treated with different concentrations of free and liposome-encapsulated drugs. Virus replication were monitored at different time intervals by measuring either the reverse transcriptase activity in cell-free supernatants or the viral p24 protein using an enzymatic test. Virus transcription was also monitored by polymerase chain reaction (PCR) analysis 24 hours after treatment using an HIV primer pair (M661/M667). The PCR evaluation was normalized with respect to the amount of human β-globin gene in cells. Cell viability was assessed using a tetrazolium-based colorimetric (MTT) assay.
Peripheral blood mononuclear cells were suspended in seeding medium in a
48 wellplate at a density of 3 × 10^6 cells/ml. Five days after
initiation of the cultures, nonadherent cells were removed by rinsing the
cultures four times with PBS. Adherent cells were first preincubated in
the presence or absence of drugcontaining medium for 2 hours prior to
inoculation with 10,000 cpm/well of the AdaM monocytotropic strain of
HIV1. Thereafter, medium was changed once every 4 to 5 days and was
replaced with medium supplemented or not with ddI. Virus replication was
monitored by measuring p24 levels using an enzymatic assay.

[2] = test system: human premonocytoid U937 cells; test: Cellular uptake in U937 cells; conditions: in words, FIGS. 1a, 1b
Description: (§2) We have performed in vitro experiments to evaluate the accumulation of free and liposome-encapsulated anti-HIV agents in murine monocyte-macrophage RAW 264.7 cells and in human premonocytoid U937 cells. In brief, experiments were performed by incubating confluent cells in culture medium in presence of different concentrations of free and liposome-encapsulated anti-HIV agents in which a small proportion of radiolabeled drugs and lipids were added. At different incubation times, the medium was removed and cells were washed and treated with a Triton X-100 solution. Drug and lipid uptake were determined by measuring the radioactivity level with a liquid scintillation counter. The protein concentration for each sample was determined with a Pierce bicinchoninic acid protein assay (Rockford, Ill.) in microtiter plates.

[3] = test system: murine monocyte-macrophage RAW 264.7 cells; test: Cellular uptake in RAW 264.7 cells; conditions: in words, FIGS. 1a-1d
Description: as §2

[4] = Tissue distribution in rats; type: in vivo, rat (female Sprague-Dawley); conditions: single i.v. dose 10 mg foscarnet/kg
Description: as §1

human CMV (AD169 strain) = test: Anti-CMV activity: CMV p72 protein expression in MRC-5 cells; type: cell-based; conditions: MRC-5 cell line, 96 hours, in words; FIG. 2g
Description: The anti-CMV activity of free and liposome-encapsulated foscarnet has been also evaluated in embryonic lung fibroblast cells (MRC-5 cell line). […] After a 96 hours incubation, cells were fixed and immunoperoxydase staining was performed using a monoclonal antibody directed against a 72-kDa immediate early CMV protein Labeled plaques were counted and results were expressed as percent of untreated infected control cells versus concentration of foscarnet.

[5] = [^3 H]ddI, single i.v. dose 3 mg ddI/kg, rats
[6] = [^14 C]-PFA, single i.v. dose 10 mg/kg, rats, mean ± SD

O=c1[nH]cnc2c1ncn2[C@H]1CC[C@@H](CO)O1 [Free ddI, 2'-3'-dideoxyinosine]
AUC0-∞, area under the plasma concentration-time curve [1, 5]: 5.31 nmol/mL/h
Cl, systemic clearance [1, 5]: 39.8 mL/min/kg
Kel, elimination rate constant [1, 5]: 4.97 h⁻¹
MRT, mean residence time [1, 5]: 12 min
Vdss, steady state volume of distribution [1, 5]: 0.48 L/kg
t1/2, elimination half-life [1, 5]: 8.4 min
p24 (Days post-infection) (HIV-1Ada-M; 0.1 μM, day 7): 0 ng/mL
p24 (Days post-infection) (HIV-1Ada-M; 0.1 μM, day 13): 20 ng/mL
p24 (Days post-infection) (HIV-1Ada-M; 0.1 μM, day 17): 280 ng/mL
p24 (Days post-infection) (HIV-1Ada-M; 1 μM, day 7): 0 ng/mL
p24 (Days post-infection) (HIV-1Ada-M; 1 μM, day 13): 0 ng/mL
p24 (Days post-infection) (HIV-1Ada-M; 1 μM, day 17): 0 ng/mL
p24 (Days post-infection) (HIV-1Ada-M; 10 μM, day 7): 0 ng/mL
p24 (Days post-infection) (HIV-1Ada-M; 10 μM, day 13): 0 ng/mL
p24 (Days post-infection) (HIV-1Ada-M; 10 μM, day 17): 0 ng/mL
drug uptake / accumulation in cells [2]: a higher accumulation
drug uptake / accumulation in cells [3]: a higher accumulation

O=C(O)P(=O)(O)O [Free foscarnet, foscarnet]
AUC0→∞, area under the plasma concentration-time curve [1, 6]: 48.0 ± 9.6 nmol/mL/h
Cl, systemic clearance [1, 6]: 12.8 ± 2.5 mL/min/kg
Kel, elimination rate constant [1, 6]: 0.96 ± 0.06 h⁻¹
MRT, mean residence time [1, 6]: 62.4 ± 4.2 min
t1/2, elimination half-life [1, 6]: 42.6 ± 2.4 min
Vdss, steady state volume of distribution ([1]; rat, in vivo, iv, 10 mg/kg): 0.80 ± 0.14 L/kg
Area under the curve, Brain ([4]; brain): 3.1 nmol foscarnet/g tissue/h
Area under the curve, Eyes ([4]; eyes): 22.9 nmol foscarnet/g tissue/h
Area under the curve, Liver ([4]; liver): 1.2 nmol foscarnet/g tissue/h
Area under the curve, Lungs ([4]; lungs): 1.5 nmol foscarnet/g tissue/h
Area under the curve, Lymph nodes ([4]; lymph nodes): 20.3 nmol foscarnet/g tissue/h
Area under the curve, Spleen ([4]; spleen): 0.8 nmol foscarnet/g tissue/h
inhibitory activity against CMV p72 protein expression (human CMV (AD169 strain)): comparable inhibitory activity

Source: patent publication US5773027A, “Liposomes encapsulating antiviral drugs” (priority 1995, dated 1998)
